Laboratory results reported in patent US20050032912A1, “Anaesthetic compositions and method for their administration” (priority 2001, published 2005).
Entries after “also recorded” stand apart in the source; their conditions may differ.

Columns and labels:
[1] = cited from earlier work
[2] = Solubilisation of propofol in aqueous poloxamer solution (micellar)
[3] = system: patients who have Parkinson's disease; conditions: cited from earlier work
[4] = Solubility in water; assay type: physicochemical
Experimental: Other anaesthetic agents are administered to the patient by means of injection. Although generally less desirable than inhaled agents for reasons of ease of administration and the maintenance of a controlled amount of the anaesthetic composition, these are used in an variety of applications. For example, propofol is a widely used anaesthetic administered to the patient by injection. The anaesthetic agents is propofol contained in an appropriate formulation. […] Propofol must be thoroughly distributed in any anaesthetic formulation, and generally brought in to solution, because the administration of propofol itself in to the patient's blood stream can cause severe problems.
Preparation of anaesthetic formulations of the invention is generally straightforward.
In addition, some poloxamers require increased temperatures in order to satisfactorily micellise in water. In general, concentrations of poloxamer of about 10% w/v are useful in the present invention, but concentrations of poloxamers, whether single or mixed, can be selected as appropriate and will generally be above 0.5% and below about 20%. More preferred concentrations are from 5% to 15%. Some poloxamers will begin to gel at higher concentrations, and any poloxamer concentration that gels at body temperature, especially when in association with propofol, should be avoided for injection purposes.

## CC(C)c1cccc(C(C)C)c1O [propofol]
[1]; bloodstream, patient
  half-life in the bloodstream: nine
[1]; three days after propofol anaesthesia
  concentration in the body: less than 0.02 mg/kg bodyweight
[2]; 10% w/w poloxamer in water, poloxamer P237
  maximum concentration of propofol: about 3.2%
[2]; poloxamer P407
  propofol dissolved: 1.7%
[3]; after propofol anaesthesia
  duration of tremor reduction: up to three
[3]; after-effect of propofol anaesthesia
  effect on tremors (in words): reduction in tremors
[4]
  solubility in water (in words): virtually insoluble in water; also recorded: not readily soluble in water
